Results on two compounds are retold here after patent US20180235210A1, “ANTISENSE COMPOSITIONS TARGETING ERWINIA SPECIES AND METHODS OF USING THE SAME” (priority 2017, published 2018).

One data set relates to Erwinia amylovora Ea110. The data set is described as follows: Measurement of bacterial growth inhibition / MIC in LB broth. Format: cell-based. As to the method:
The highly-virulent strain E. amylovora Ea110, which was isolated from an apple orchard in Michigan (Zhao et al., 2005), was used in this study. Bacterial strains were stored at −80° C. in 15% glycerol and cultured in Luria-Bertani (LB) medium at 28° C. PNA-CPP was synthesized using Bts oligomerization method by Panagene Inc (Daejeon, Korea). Streptomycin and PNA-CPP were implemented at rates indicated in each assay.
Erwinia amylovora Ea110 was cultured in LB broth overnight and then cell concentrations were adjusted to 5×10^5 CFU/ml in LB broth. A total of 80 μl of the bacterial suspension in LB was added into each well of a 96 well plate. Lyophilized PNA-CPP was resuspended in water to a stock concentration of 100 μM and was serial diluted. Twenty μl of the diluted PNA-CPP solution was added into each well that contained 80 μl of the bacterial suspension in LB to make the final concentrations indicated in each assay. Water and streptomycin were added to the wells as negative and positive controls. The plate was incubated at 28° C. with orbital shaking in a BioTek Synergy H1 microplate reader (BioTek, Winooski, Vt., USA) for 20 hr. During the incubation, the OD 600 of each well was measured every 10 min. The lowest concentration of a PNA-CPP that prevented growth after 20 hr represented the MIC. Three replicates were included in each testing, and the experiment was repeated twice.

Another data set has as its system acpP mRNA. Description: Northern blot detection of acpP expression in treated cells. The format is cell-based, Erwinia amylovora. The following applies: streptomycin 1 μM and 3 μM, 15.5 hrs post inoculation. As to the method: E. amylovora Ea110 was inoculated into LB broth at the final concentration of 5×10^5 CFU/ml, and was treated with various concentrations of PNA-CPP, water, or streptomycin. The inoculated cells were incubated at 28° C. with orbital shaking, and were collected for RNA isolation at 15.5 hrs post inoculation. Total bacterial RNA was isolated using the RNeasy Protect Bacteria Mini Kit (Qiagen, Valencia, Calif., USA) following the manufacturer's instructions. The quality and quantity of RNA was measured with a Nanodrop 2000c (Thermo Scientific, Wilmington, Del., USA).
The probe for acpP detection in Northern blots was synthesized from polymerase chain reaction (PCR) using acpP primers (forward primer 5′-TGGGCGTTAAGCAGGAAGAAG-3′ (SEQ ID NO: 5) and reverse primer 5′-TACGCCTGGTGACCATTGAT (SEQ ID NO: 6)). The PCR product was purified using a QIAquick PCR Purification kit (Qiagen) and labelled using a Biotin DecaLabel DNA Labeling Kit (Thermo Fisher Scientific, Grand Island, N.Y.) as per instruction of kit manual. Thirty micrograms of RNA was loaded for each sample and was separated on a formaldehyde denaturing gel in MOPS buffer. BrightStar®-Plus positively-charged nylon membranes (Thermo Fisher Scientific) were used for transfer of RNA from gel to membrane. […] The biotin signal was detected using a Biotin Chromogenic Detection Kit (Thermo Fisher Scientific).

For data set [1], the system named is apple flower-associated bacteria. Description: Susceptibility of apple flower-associated bacteria and biocontrol strains (panel). Conditions: streptomycin 20 μM. Format: cell-based. As to the method:
Fifty flowers were collected from apple trees Malus×domestica ‘McIntosh’ from the Hamden, Conn. Lockwood farm in May 2016. The stigmas from all 50 flowers were removed, placed into 3 ml of 0.5×PBS, vortexed for 20 seconds, and sonicated for 5 min in a water bath sonicator to release the stigma associated bacteria. PBS buffer containing bacteria cells was serially diluted (10×, 100× and 1000×) and plated on LB agar medium and incubated at 28° C. for 48 h. On the basis of morphological colony characteristics, 200 bacterial colonies were shortlisted, sub-cultured, and identified using 16s rDNA sequencing using the forward primer 63f (5′-CAGGCCTAACACATGCAAGTC-3′) (SEQ ID NO: 10) and reverse primer 1387r (5′-GGG CGG WGT GTA CAA GGC-3′) (SEQ ID NO: 11). Fifteen different species were selected from the 200 bacterial cultures for testing against anti-acpP-CPP1 and streptomycin. Biological control agents Pseudomonas fluorescence A506, Bacillus amyloliquefaciens D747 and Pantoea agglomerans E325 were isolated from the original products on LB agar plate.
Compared to the traditional antibiotics that kill microbes with little selection, antisense antimicrobials inhibit bacterial growth through a sequence specific manner. […] Two hundred bacterial colonies were subcultured, and the identities of these colonies were determined by 16S rDNA sequencing. […]

Take `[H]/N=C(/N)N[C@H]1[C@H](O)[C@@H](O)[C@H](O[C@@H]2O[C@@H](C)[C@](O)(C=O)[C@H]2O[C@@H]2O[C@@H](CO)[C@H](O)[C@@H](O)[C@@H]2NC)[C@@H](N/C(N)=N\[H])[C@@H]1O` [streptomycin]: the MIC with Erwinia amylovora Ea110 (Erwinia amylovora, E. amylovora Ea110, LB broth, 28° C., 20 hr, read-out: minimal inhibitory concentration (MIC)) worked out at 2 µM. For the same compound, in the data set on acpP mRNA, the “acpP mRNA abundance” value is “did not affect”. Moreover, the “susceptibility of strains tested” value in data set [1] was “All strains tested are susceptible to streptomycin with the exception of P. fluorescens A506”.
As for “anti-acpP PNA: 10-nucleotide PNA oligomer 5′-ctcatactat-3′ (SEQ ID NO: 1), antisense to start codon region of acpP, no CPP (CTCATACTAT; all peptide nucleic acid (PNA))”, the “growth inhibition of E. amylovora” value in the data set on Erwinia amylovora Ea110 (LB broth, any concentration tested, compared to water) is reported as “did not display any growth inhibition”.
